Experimental data taken from patent US20230271950A1, “ANTIBACTERIAL PICOLINAMIDE COMPOUNDS” (University of Notre Dame Du Lac, priority 2020, published 2023).
Values after ≈ are worked out from the molar mass of the structure shown.

What was measured:
[1] = tested on: E. faecium NCTC7171; experiment: MIC against E. faecium; format: cell-based, Enterococcus faecium; details: Enterococcus faecium, NCTC7171; E. faecium NCTC 7171; Table 10, unit inferred; read-out: Activity (MIC) against E. faecium
[2] = tested on: MRSA (NRS70, NRS119); experiment: MIC against MRSA strains; format: cell-based, Staphylococcus aureus; details: Staphylococcus aureus, NRS70 strain; Table 3 (SAR^2 and SAR^3); read-out: MIC MRSA
[3] = tested on: S. aureus ATCC29213; experiment: MIC against MSSA; format: cell-based, Staphylococcus aureus; details: Staphylococcus aureus; MSSA ATCC 29213; Table 10, unit inferred; read-out: Activity (MIC) against S. aureus
[4] = tested on: C. difficile; experiment: MIC by broth microdilution against C. difficile strains; format: cell-based, Clostridioides difficile; details: for MIC: Clostridioides difficile, ATCC43255, ATCC 43255, ribotype 087, Table 3 (SAR^2 and SAR^3), read-out: MIC C. difficile; for Selectivity: MIC MRSA/MIC C. difficile, Table 3
[5] = tested on: HeLa cells; experiment: XTT cytotoxicity assay with HeLa cells; format: cell-based; details: Homo sapiens, Table 6
Procedure: XTT assay. Cytotoxicity assays were performed in triplicate against HeLa cells (ATCC CCL-2). The IC50 values were calculated by nonlinear regression with GraphPad Prism 5 (San Diego, Calif.).
XTT assay. XTT assays were performed with HeLa cells (ATCC CCL-2) in triplicate, as previously described (Lancet 2008, 371, 1486). IC50 values were determined by nonlinear regression using GraphPad Prism 5 (San Diego, Calif.).

Row | MIC [1] [µg/mL] | MIC [2] [µg/mL] | MIC [3] [µg/mL] | MIC [4] [µg/mL] | SMILES | Selectivity [4] | IC50 [5] [µg/mL]
1 | 1 (≈ 3.15 µM) | 0.25 (≈ 0.787 µM) | 0.5 (≈ 1.57 µM) | 0.25 (≈ 0.787 µM) | O=C(Nc1ncco1)c1ccnc(-c2ccc(F)c(Cl)c2)c1 [Compound 40, 2-(3-Chloro-4-fluorophenyl)-N-(oxazol-2-yl)isonicotinamide] | 1 | 
2 | 0.06 (≈ 0.18 µM) | 0.0625 (≈ 0.187 µM) | 0.06 (≈ 0.18 µM) | 0.0625 (≈ 0.187 µM) | O=C(Nc1ncco1)c1ccnc(-c2cc(Cl)cc(Cl)c2)c1 [Compound 41, 2-(3,5-Dichlorophenyl)-N-(oxazol-2-yl)isonicotinamide] | 1 | 
3 | 0.5 (≈ 1.57 µM) | 0.0625 (≈ 0.197 µM) | 0.25 (≈ 0.787 µM) | 0.12 (≈ 0.378 µM) | O=C(Nc1ncco1)c1ccnc(-c2cc(F)cc(Cl)c2)c1 [Compound 43, 2-(3-Chloro-5-fluorophenyl)-N-(oxazol-2-yl)isonicotinamide] | 0.5 | 
4 | 1 (≈ 3 µM) | 1 (≈ 3 µM) | 0.25 (≈ 0.75 µM) | 0.25 (≈ 0.75 µM) | O=C(Nc1ncco1)c1ccnc(-c2ccc(C(F)(F)F)cc2)c1 [Compound 44, N-(Oxazol-2-yl)-2-(4-(trifluoromethyl)phenyl)isonicotinamide] | 4 | 
5 | 1 (≈ 3 µM) | 0.25 (≈ 0.75 µM) | 0.25 (≈ 0.75 µM) | 0.25 (≈ 0.75 µM) | O=C(Nc1ncco1)c1ccnc(-c2cccc(C(F)(F)F)c2)c1 [Compound 45, N-(Oxazol-2-yl)-2-(3-(trifluoromethyl)phenyl)isonicotinamide] | 1 | 
6 | 2 (≈ 5.73 µM) | 1 (≈ 2.86 µM) | 0.5 (≈ 1.43 µM) | 0.125 (≈ 0.358 µM) | O=C(Nc1ncco1)c1ccnc(-c2ccc(OC(F)(F)F)cc2)c1 [Compound 46, N-(Oxazol-2-yl)-2-(4-(trifluoromethoxy)phenyl)isonicotinamide] | 8 | 
7 | 1 (≈ 2.86 µM) | 0.0625 (≈ 0.179 µM) | 0.25 (≈ 0.716 µM) | 0.25 (≈ 0.716 µM) | O=C(Nc1ncco1)c1ccnc(-c2cccc(OC(F)(F)F)c2)c1 [Compound 47, N-(Oxazol-2-yl)-2-(3-(trifluoromethoxy)phenyl)isonicotinamide] | 0.25 | 
8 | 1 (≈ 2.91 µM) | 0.25 (≈ 0.726 µM) | 0.5 (≈ 1.45 µM) | 0.5 (≈ 1.45 µM) | O=C(Nc1ncco1)c1ccnc(-c2ccc(Br)cc2)c1 [Compound 48, 2-(4-Bromophenyl)-N-(oxazol-2-yl)isonicotinamide] | 0.5 | 
9 | 8 (≈ 27.9 µM) | 4 (≈ 13.9 µM) | 8 (≈ 27.9 µM) | 2 (≈ 6.96 µM) | O=C(Nc1ncco1)c1ccnc(OCC(F)(F)F)c1 [Compound 64, N-(Oxazol-2-yl)-2-(2,2,2-trifluoroethoxy)isonicotinamide] | 2 | 
10 | 1 (≈ 2.84 µM) | 2 (≈ 5.68 µM) | 0.5 (≈ 1.42 µM) | 0.25 (≈ 0.71 µM) | O=C(Nc1ncco1)c1ccnc(-c2ccc(Cl)c(Cl)c2)c1F [Compound 66, 2-(3,4-Dichlorophenyl)-3-fluoro-N-(oxazol-2-yl)isonicotinamide] | 8 | 
11 | 0.5 (≈ 1.42 µM) | 0.0625 (≈ 0.177 µM) | 0.25 (≈ 0.71 µM) | 0.125 (≈ 0.355 µM) | O=C(Nc1ncco1)c1cc(-c2ccc(Cl)c(Cl)c2)ncc1F [Compound 70, 2-(3,4-Dichlorophenyl)-5-fluoro-N-(oxazol-2-yl)isonicotinamide] | 0.5 | 
12 | ≥ 128 | 128 (≈ 425 µM) | ≥ 128 | 0.5 (≈ 1.66 µM) | O=C(Nc1ncco1)c1cc(-c2ccc(F)c(F)c2)ccn1 [Compound 90, 4-(3,4-Difluorophenyl)-N-(oxazol-2-yl)picolinamide] | 256 | > 64
13 | ≥ 128 | 128 (≈ 403 µM) | ≥ 128 | 0.25 (≈ 0.787 µM) | O=C(Nc1ncco1)c1cc(-c2ccc(F)c(Cl)c2)ccn1 [Compound 91, 4-(3-Chloro-4-fluorophenyl)-N-(oxazol-2-yl)picolinamide] | 512 | 
14 | ≥ 128 | 128 (≈ 403 µM) | ≥ 128 | 0.25 (≈ 0.787 µM) | O=C(Nc1ncco1)c1cc(-c2ccc(Cl)c(F)c2)ccn1 [Compound 92, 4-(4-Chloro-3-fluorophenyl)-N-(oxazol-2-yl)picolinamide] | 512 | > 256
15 | ≥ 128 | 64 (≈ 226 µM) | ≥ 128 | 0.5 (≈ 1.77 µM) | O=C(Nc1ncco1)c1cc(-c2cccc(F)c2)ccn1 [Compound 93, 4-(3-Fluorophenyl)-N-(oxazol-2-yl)picolinamide] | 128 | > 64
16 | ≥ 128 | 64 (≈ 212 µM) | ≥ 128 | 1 (≈ 3.32 µM) | O=C(Nc1ncco1)c1cc(-c2cc(F)cc(F)c2)ccn1 [Compound 94, 4-(3,5-Difluorophenyl)-N-(oxazol-2-yl)picolinamide] | 64 | 40.1 ± 1.6 (≈ 133 µM)
17 | 0.5 (≈ 1.43 µM) |  | 0.12 (≈ 0.343 µM) |  | O=C(Nc1ncco1)c1ccnc(Oc2ccc(Cl)c(Cl)c2)c1 [Compound 99, 2-(3,4-Dichlorophenoxy)-N-(oxazol-2-yl)isonicotinamide] |  | 37 ± 1 (≈ 106 µM)
18 | 64 (≈ 144 µM) |  | 8 (≈ 18 µM) |  | O=C(O)c1ccc2nc(NC(=O)c3cc(-c4ccc(OC(F)(F)F)cc4)ccn3)oc2c1 [Compound 118, 2-(4-(4-(Trifluoromethoxy)phenyl)picolinamido)benzo[d]oxazole-6-carboxylic acid] |  | 79.9 ± 6.3 (≈ 180 µM)
19 |  |  |  |  | O=C(O)c1ccc2nc(NC(=O)c3cc(-c4cccc(OC(F)(F)F)c4)ccn3)oc2c1 [Compound 119, 2-(4-(3-(Trifluoromethoxy)phenyl)picolinamido)benzo[d]oxazole-6-carboxylic acid] |  | 124 ± 3.3 (≈ 279 µM)

Row | SMILES | MIC [1] [µg/mL] | MIC [2] [µg/mL] | MIC [3] [µg/mL] | MIC [4] [µg/mL] | Selectivity [4] | IC50 [5] [µg/mL]
20 | O=C(Nc1ncco1)c1cc(-c2ccc(F)cc2)ccn1 [Compound 89, 4-(4-Fluorophenyl)-N-(oxazol-2-yl)picolinamide] | ≥ 128 | 64 (≈ 226 µM) | ≥ 128 | 1 (≈ 3.53 µM) | 64 | 170 ± 2.5 (≈ 601 µM)
21 | O=C(Nc1ncco1)c1cc(-c2ccc(C(F)(F)F)cc2)ccn1 [Compound 97, N-(Oxazol-2-yl)-4-(4-(trifluoromethyl)phenyl)picolinamide] | ≥ 128 | 128 (≈ 384 µM) | ≥ 128 | 0.25 (≈ 0.75 µM) | 512 | 135 ± 8.6 (≈ 405 µM)
22 | O=C(Nc1ncco1)c1cc(-c2cccc(C(F)(F)F)c2)ccn1 [Compound 98, N-(Oxazol-2-yl)-4-(3-(trifluoromethyl)phenyl)picolinamide] | ≥ 128 | 64 (≈ 192 µM) | ≥ 128 | 0.5 (≈ 1.5 µM) | 128 | 115 ± 2.2 (≈ 344 µM)
23 | O=C(Nc1ncco1)c1cc(Oc2ccc(F)c(F)c2)ccn1 [Compound 106, 4-(3,4-Difluorophenoxy)-N-(oxazol-2-yl)picolinamide] | 128 (≈ 403 µM) |  | 64 (≈ 202 µM) |  |  | 106 ± 2.1 (≈ 334 µM)
24 | O=C(Nc1ncco1)c1cc(Oc2ccc(OC(F)(F)F)cc2)ccn1 [Compound 109, N-(Oxazol-2-yl)-4-(4-(trifluoromethoxy)phenoxy)picolinamide] | ≥ 128 |  | ≥ 128 |  |  | 77.4 ± 2.3 (≈ 212 µM)
25 | O=C(Nc1ncco1)c1cc(Oc2ccc(SC(F)(F)F)cc2)ccn1 [Compound 110, N-(Oxazol-2-yl)-4-(4-((trifluoromethyl)thio)phenoxy)picolinamide] | ≥ 128 |  | ≥ 128 |  |  | 91.6 ± 1.3 (≈ 240 µM)
26 | COC(=O)c1ccc2oc(NC(=O)c3cc(Oc4ccc(F)c(F)c4)ccn3)nc2c1 [Compound 114, Methyl 2-(4-(3,4-difluorophenoxy)picolinamido)benzo[d]oxazole-5-carboxylate] | ≥ 128 |  | 128 (≈ 301 µM) |  |  | 53.3 ± 3.6 (≈ 125 µM)
